# Columns and labels:
# [1] = test system: G-quadruplex oligonucleotide F21T (human telomere); assay: FRET melting of G-quadruplex oligonucleotide F21T with ligands; type: binding; details: for ΔTm (° C.) F21T/ds26: helquat 1 μmol·l^−1, oligonucleotide 0.2 μmol·l^−1, 50-fold excess of double-stranded competitor ds26; for ΔTm (° C.) F21T: helquat 1 μmol·l^−1, oligonucleotide 0.2 μmol·l^−1, without competitor
# From the text: (§1) To determine the degree of in vitro interactions of helquats with G-quadruplex(es), the oligonucleotides containing the guanine-rich sequences of human telomere (F21T) and NHE III1 promoter region of c-myc oncogene (Fmyc27T) were used. Both oligonucleotides capable of forming an intramolecular G-quadruplex were end-labeled with suitable fluorophores so as to form donor-acceptor FRET pair (5′-FAM and 3′-TAMRA). If the oligonucleotide is folded into the structure of the G-quadruplex, donor is in close proximity of acceptor and radiationless energy transfer to the acceptor occurs. With increasing temperature of the reaction mixture G-quadruplex structure gradually denatures and thus the donor and acceptor (FAM-TAMRA) drift apart. This leads to an increase in fluorescence of donor (FAM) and a decrease in fluorescence of acceptor (TAMRA).
# (§2) The result of measurement is the curve of dependence of the intensity of fluorescence of the donor on the temperature. If the G-quadruplex is stabilized by ligand, melting temperature will increase. Melting temperature of G-quadruplex corresponds to the temperature when 50% of the original amount of the folded G-quadruplex is denatured. The measurement outcome is the difference in the melting temperatures (ΔTm) of the G-quadruplex alone and the G-quadruplex stabilized by ligand. In case of Fmyc27T experiments were performed in cacodylate buffer (10 mmol·l^−1, pH=7.2) with KCl (5 mmol·l^−1) and LiCl (95 mmol·l^−1) oligonucleotide and in case of F21T oligonucleotide in cacodylate buffer (10 mmol·l^−1, pH=7.2) with KCl (25 mmol·l^−1) and LiCl (75 mmol·l^−1).
# (§3) Both oligonucleotides were denatured for 5 minutes at 95° C. and subsequently allowed to cool to room temperature (3 hours) in the switched-off thermoblock. The final oligonucleotide concentration in the reaction mixture was 0.2 μmol·l^−1. Test helquats were present at concentrations of 1 μmol·l^−1. The total reaction volume was 30 μl. The melting temperature of the oligonucleotides alone (without the presence of helquats) under these conditions was 58.1±0.2° C. for F21T and 64.7±0.4° C. for Fmyc27T. For determining the selectivity of binding of helquats to G-quadruplex in comparison with the double-stranded DNA, 50-fold excess of double-stranded DNA ([…] unlabeled competitor ds26 forming a hairpin) is added to the reaction mixture. After the addition to the reaction mixture ds26 competes with labeled oligonucleotide (Fmyc27T or F21T) for ligand binding. […] Melting temperature of oligonucleotides alone in the presence of the competitor is 59.4±0.5° C. for F21T and 66.3° C.±0.6° C. for Fmyc27T.
# (§4) Fluorescence of FAM donor was measured using real-time PCR apparatus Opticon 2 (excitation 470-505 nm and emission 523-543 nm) in temperature increments of 0.5° C. in the range 25 to 95° C. Evaluation of the sigmoid curves of fluorescence intensity dependent on the temperature were performed in GraphPad Prism 5 (GraphPad Software, Inc., USA). Using nonlinear five parametric regression the inflection point on the curve was calculated that corresponds to the melting temperature (Tm) of the G-quadruplex under the given conditions. The values were obtained from at least three independent measurements.
# [2] = test system: G-quadruplex oligonucleotide Fmyc27T (NHE III1 promoter region of c-myc oncogene); assay: FRET melting of G-quadruplex oligonucleotide Fmyc27T with ligands; type: binding; details: for ΔTm (° C.) Fmyc27T/ds26 (° C.): helquat 1 μmol·l^−1, oligonucleotide 0.2 μmol·l^−1, 50-fold excess of double-stranded competitor ds26; for ΔTm (° C.) Fmyc27T: helquat 1 μmol·l^−1, oligonucleotide 0.2 μmol·l^−1, without competitor
# From the text: as §1, §2, §3, §4
# c-myc protein = assay: Immunodetection of protein c-myc in HGC-27 cell lysates (Western blot); type: cell-based, human; details: 50 μmol · l^−1, 24 hour incubation, normalized to β-actin
# Procedure: Determination of changes in c-myc protein expression (transcription factor) in cell lysates prepared from tumor cell line HGC-27 after treatment with test helquats (Tab. 7) was carried out by immunodetection after separation of proteins according to their size by gel electrophoresis (SDS-PAGE) and blotting.
# To determine the influence helquats on expression of c-myc protein, the cells were cultured under standard conditions and in the exponential growth phase were seeded into flasks at a density of 25,000 cells/cm^2. The next day selected helquats were added at a concentration of 50 μmol·l^−1. After 24 hour incubation, the cell pellets were obtained and, after addition of RIPA buffer with protease inhibitors (PrIC) and phosphatases (PhIC) (for composition see Tab. 8) cell lysates were prepared. 150 μl of RIPA buffer was used for 10^7 cells. Protein concentrations in the lysates were measured by BCA method. Separation of proteins in the lysates was carried out on a 12% denaturing polyacrylamide gel. The separated proteins were transferred to PVDF membrane by Western blotting.
# Incubation with primary mouse monoclonal antibody against the protein c-myc (dilution 1:1000 in “SignalBoost” reagent) was carried out overnight at 4° C., and then with the primary mouse anti-β-actin (1:5000 dilution in 5% milk in TBS-T buffer) at room temperature for 2 hours. Subsequently, the secondary horse monoclonal antibody conjugated to horseradish peroxidase (diluted 1:2000 in 5% milk in TBS-T buffer) binding to mouse IgG antibody was applied. C-myc proteins and β-actin bound to the membrane were visualized using detection kit (SuperSignal® West Femto Maximum Sensitivity Substrate, Cat. No. 34095, Thermo Fisher Scientific, Inc., USA) in the chemiluminescence detection system ImageQuant LAS 4000 Mini (Cat. No. 28-9558-13, GE Healthcare Life Sciences, USA). The amount of protein was quantified by densitometry in Quantity One software. The amount of c-myc in the samples was normalized to β-actin, and subsequently related to a control sample.
# [3] = test system: G-quadruplex in promoter region of the c-myc gene (NHE III1 segment); assay: Dual luciferase analysis with plasmid pGL4.10-myc (luc2) in HGC-27 cells; type: cell-based, human; details: Homo sapiens; for inhibition at 50 µM: HGC-27, text summary of tab. 5 (50 μmol·l^−1), read-out: inhibition of expression of firefly luciferase as compared to control; for activity at 50 µM: helquat 50 μmol · l^−1, HGC-27, firefly normalized to Renilla, 24 hours after transfection, read-out: luciferase expression relative to control (control = 100%)
# From the text: A dual luciferase analysis was used to determine the degree of stabilization of G-quadruplex in a promoter region of the c-myc gene on cellular level. Stabilization of G-quadruplex is expressed as the ratio of expression of two luciferases (firefly and Renilla) from the co-transfected vectors pGL4.10-myc (luc2) and pRL-TK (Renilla) into a cell line HGC-27 expressing c-myc protein. Expression of the reporter gene (firefly luciferase) from pGL4.10-myc vector is controlled by the c-myc regulatory region of a length of 860 by (in the range from −306 to +554). The inserted sequence contains NHE III1 segment which forms G-quadruplex [Yang, D. et al. (2010) Future Med Chem., 2, 619], and is responsible for as much as 90% of the transcriptional activity of the c-myc gene.
# Level of expression of firefly luciferase reporter gene corresponds to promoter activity of c-myc and thus to the degree of stabilization of the G-quadruplex. The signal is normalized to Renilla luciferase expression from pRL-TK vector under the control of a constitutive viral thymidine kinase (HSV-TK) promoter. The amount of Renilla luciferase expression serves as an internal control for normalization of firefly signal on transfection efficiency in the sample. Plasmids pGL4.10-myc (luc2) and pRL-TK were propagated in Escherichia coli (DH5α strain) and purified using the Qiagen Plasmid Mini and Midi kits. Cells were cultured under standard conditions and in exponential growth phase were seeded into a white 96-well microtiter plates. Transfection was carried out using a transfection reagent X-tremeGENE HP DNA in OptiMEM media for two hours. The ratio of reporter and control vector was 1:1 and the ratio of transfection reagent to the total amount of DNA was 1:1. Two hours after transfection helquats were added in a concentration of 50 μmol·l^−1. Quantity of firefly and Renilla luciferases in the samples was determined 24 hours after transfection. Dual luciferase analysis was performed using a commercially available kit (Promega, cat. No. E1960) according to manufacturer's instructions. Luminescence was measured using a luminometer EnSpire Alpha Plate Reader. The data obtained were normalized to the Renilla luciferase signal and then the values were related to control.
Compound,ΔTm (° C.) F21T/ds26 [1],ΔTm (° C.) F21T [1],ΔTm (° C.) Fmyc27T/ds26 (° C.) [2],ΔTm (° C.) Fmyc27T [2],c-myc protein expression relative to control (control = 100%) (c-myc protein),inhibition at 50 µM [3],activity at 50 µM [3]
"Brc1ccc2[nH]cc(/C=C/c3cc[n+]4c(c3)-c3c(ccc5c3-c3cc(/C=C/c6c[nH]c7ccc(Br)cc67)cc[n+]3CC5)CC4)c2c1.O=S(=O)([O-])C(F)(F)F.O=S(=O)([O-])C(F)(F)F [PDA-C9-30, 2,15-bis((E)-2-(5-bromo-1H-indol-3-yl)vinyl)-6,7,10,11-tetrahydrodipyrido[2,1-a:1′,2′-k][2,9]phenanthroline-5,12-diium trifluoromethanesulfonate]",13.1 °C,12.3 °C,16.0 °C,14.6 °C,–,–,–
"C(=C\c1ccc(-c2cccs2)s1)/c1cc[n+]2c(c1)-c1c(ccc3c1-c1cccc[n+]1CC3)CC2.O=S(=O)([O-])C(F)(F)F.O=S(=O)([O-])C(F)(F)F [LSA-C9-16, (E)-2-(2-([2,2′-bithiophen]-5-yl)vinyl)-6,7,10,11-tetrahydrodipyrido[2,1-a:1′,2′-k][2,9]phenanthroline-5,12-diium trifluoromethanesulfonate]",–,–,–,–,28%,–,–
"Cn1cc(/C=C/c2cc[n+]3c(c2)-c2c(ccc4c2-c2cc(/C=C/c5cn(C)c6ccccc56)cc[n+]2CC4)CC3)c2ccccc21 [PDA-C10-13, 2,15-bis((E)-2-(1-methyl-1H-indol-3-yl)vinyl)-6,7,10,11-tetrahydrodipyrido[2,1-a:1′,2′-k][2,9]phenanthroline-5,12-diium trifluoromethanesulfonate]",9.1 °C,9.7 °C,13.6 °C,13.8 °C,–,–,–
"COc1ccc(/C=C/c2cc[n+]3c(c2)-c2c(c(C)c(C)c4c2-c2cccc(/C=C/c5ccc(OC)nc5OC)[n+]2CC4)CC3)c(OC)n1.O=S(=O)([O-])C(F)(F)F.O=S(=O)([O-])C(F)(F)F [MJB-C8-27, 2,13-bis((E)-2-(2,6-dimethoxypyridin-3-yl)vinyl)-8,9-dimethyl-6,7,10,11-tetrahydrodipyrido[2,1-a:1′,2′-k][2,9]phenanthroline-5,12-diium trifluoromethanesulfonate]",5.2 °C,8.0 °C,10.0 °C,9.7 °C,–,> 10%,88%
"C(=C\c1cc(/C=C/c2ccsc2)[n+]2c(c1)-c1c(ccc3c1-c1cc(/C=C/c4ccsc4)cc(/C=C/c4ccsc4)[n+]1CCC3)CCC2)/c1ccsc1 (racemic) [PRC-C5-9, (rac)-2,4,13,15-tetrakis((E)-2-(thiophen-3-yl)vinyl)-6,7,8,11,12,13-hexahydro-dipyrido[1,2-a;1′,2′-a′]benzo[2,1-c:3,4-c′]bisazepindiium trifluoromethanesulfonate]",–,–,–,–,34%,–,–
"Cc1c(C)c2c(c3c1CC[n+]1ccc(/C=C/c4c(-c5ccccc5)[nH]c5ccccc45)cc1-3)-c1cc(/C=C/c3c(-c4ccccc4)[nH]c4ccccc34)cc[n+]1CC2 [PDB-C15-8, 8,9-dimethyl-2,15-bis((E)-2-(2-phenyl-1H-indol-3-yl)vinyl)-6,7,10,11-tetrahydrodipyrido[2,1-a:1′,2′-k][2,9]phenanthroline-5,12-diium trifluoromethanesulfonate]",11.1 °C,11.3 °C,14.5 °C,15.7 °C,–,–,–
"Cc1c(C)c2c(c3c1CC[n+]1ccc(/C=C/c4cccc5c4oc4ccccc45)cc1-3)-c1cc(/C=C/c3cccc4c3oc3ccccc34)cc[n+]1CC2.O=S(=O)([O-])C(F)(F)F.O=S(=O)([O-])C(F)(F)F [PDB-C13-8, 2,15-bis((E)-2-(dibenzo [b,d]furan-4-yl)vinyl)-8,9-dimethyl-6,7,10,11-tetrahydrodipyrido[2,1-a:1′,2′-k][2,9]phenanthroline-5,12-diium trifluoromethanesulfonate]",–,–,–,–,83%,–,–
"COc1ccc(/C=C/c2cc[n+]3c(c2)-c2c(ccc4c2-c2cc(/C=C/c5ccc(OC)nc5OC)cc[n+]2CC4)CC3)c(OC)n1 [PDA-C8-27, 2,15-bis((E)-2-(2,6-dimethoxypyridin-3-yl)vinyl)-6,7,10,11-tetrahydrodipyrido[2,1-a:1′,2′-k][2,9]phenanthroline-5,12-diium trifluoromethanesulfonate]",7.0 °C,9.3 °C,9.6 °C,11.8 °C,–,> 20%,77%
"Cc1c(C)c2c(c3c1CC[n+]1ccc(/C=C/c4ccc(-n5c6ccccc6c6ccccc65)cc4)cc1-3)-c1c3ccccc3cc[n+]1CC2.O=S(=O)([O-])C(F)(F)F.O=S(=O)([O-])C(F)(F)F [MJA-C19-4, (E)-13-(4-(9H-carbazol-9-yl)styryl)-6,7-dimethyl-4,5,8,9-tetrahydroisoquinolino[1,2-a]pyrido[1,2-k][2,9]phenanthroline-3,10-diium trifluoromethanesulfonate]",–,–,–,–,81%,–,–

# Reference: US9932339B2, “Helquats with heteroaromatic substituents, preparation thereof, and use thereof as G-quadruplex stabilizers” (USTAV ORGANICKE CHEMIE A BIOCHEMIE AV CR, V.V.I., priority 2014, dated 2018)
